# Results: paper PMC3532055 (Journal of medicinal chemistry, 2012)
# Assays:
# α7-nAChRs [1] = target: T1, α7-nAChRs (Rattus norvegicus, UniProt Q05941); test: Binding test at α7*-nAChRs; settings: endogenous receptors prepared from rat forebrain
# α7-nAChRs [2] = target: T1, α7-nAChRs; test: Binding test at α7-nAChRs
# BALB/cJ male mice = test: Mouse forced swim test; settings: vs vehicle
# α2β2 = α2β2 (Rattus norvegicus, UniProt P12389+P12390); test: [3H]epibatidine competition binding, rat α2β2 nAChR; settings: read-out: Ki α2β2, ± SEM
# human α7-nAChRs = settings: read-out: Ki human α7-nAChRs; cited from earlier work
# [3] = 5, 10, and 30 mg/kg ip, 30 min before 6 min trial
smiles,measurement,setting,value
"OCCc1cc(-c2cncc(OC[C@@H]3CCN3)c2)on1 [Compound 13, 2-[5-[5-((S)Azetidin-2-ylmethoxy)-3-pyridinyl]-3-isoxazolyl]ethanol]",activity at α7*-nAChRs,α7-nAChRs [1],no activity
same,activity at α7-nAChRs,α7-nAChRs [2],no activity
"FC(F)CCc1cc(-c2cncc(OC[C@@H]3CCN3)c2)on1 [Compound 25, 3-(2(S)-Azetidinylmethoxy)-5-[3-(3,3-difluoropropyl)-5-isoxazolyl]pyridine]",activity at α7*-nAChRs,α7-nAChRs [1],no activity
same,activity at α7-nAChRs,α7-nAChRs [2],no activity
same,immobility in the mouse forced swim test,BALB/cJ male mice; [3],reduced immobility
"FCCCc1cc(-c2cncc(OC[C@@H]3CCN3)c2)on1 [Compound 26, 3-(2(S)-Azetidinylmethoxy)-5-[3-(3-fluoropropyl)-5-isoxazolyl]pyridine]",immobility in the mouse forced swim test,BALB/cJ male mice; [3],reduced immobility
"c1ncc(-c2cc(CCN3CCOCC3)no2)cc1OC[C@@H]1CCN1 [Compound 27, 4-[2-[5-[5-(2(S)-Azetidinylmethoxy)-3-pyridinyl]-3-isoxazolyl]ethyl]morpholine]",Ki,α2β2,0.0123 ± 0.0021 µM
"c1ncc(-c2cc(CCN3CCOCC3)no2)cc1OC[C@@H]1CCCN1 [Compound 28, 4-[2-[5-[5-(2(S)-Pyrrolidinylmethoxy)-3-pyridinyl]-3-isoxazolyl]ethyl]morpholine]",Ki,α2β2,0.074 ± 0.013 µM
"CCc1cc(-c2cncc(OC[C@@H]3CCN3)c2)on1 [Compound 38, 3-(2(S)-Azetidinylmethoxy)-5-(3-ethyl-5-isoxazolyl)pyridine]",activity at α7*-nAChRs,α7-nAChRs [1],no activity
same,activity at α7-nAChRs,α7-nAChRs [2],no activity
same,immobility in the mouse forced swim test,"BALB/cJ male mice; 1, 3, 5, 10, and 30 mg/kg ip, 30 min before 6 min trial",reduced immobility
"c1cncc(OC[C@@H]2CCN2)c1 [Compound A-85380, 3-(2(S)-azetidinylmethoxy) pyridine]",Ki,human α7-nAChRs,0.148 µM
"CN[C@H]1CC[C@@H](c2ccc(Cl)c(Cl)c2)c2ccccc21 [sertraline, reference compound]",immobility in the mouse forced swim test,"BALB/cJ male mice; 20 mg/kg ip, positive control",expected decrease in immobility
